This is an account of results in US20230416692A1 (BOARD OF REGENTS, THE UNIVERSITY OF TEXAS SYSTEM, priority 2020, published 2023).

Read-outs that look alike come from different tables or passages of the source. A value given as a limit tells only on which side of the number the result lay.

In one data set the test system is A549-hACE2 cells. The following applies: human.
For data set [1], the system named is SARS-CoV-2-Nluc. As to the kind of experiment: microbe, parasite or virus in culture. Format: cell-based.
The subject of data set [2] is SARS-CoV-2-Nluc. As to the kind of experiment: microbe, parasite or virus in culture. In kind it is cell-based. This is another data set of the same source.
For data set [3] the following is noted: human exposures in the clinics, cited from earlier work; for Cmax: read-out: Exposure (μM): Cmax.
The next data set concerns plasma protein. The following applies: data from literature; cited from earlier work.
The next data set has as its system COVID-19. The settings on record: human, in vivo; cited from earlier work.
The next data set deals with icSARS-CoV-2-mNG. In kind it is cell-based, SARS-CoV-2.
[4] abbreviates: Severe acute respiratory syndrome coronavirus 2.
[5] abbreviates: Severe acute respiratory syndrome coronavirus 2, 48 h.
The mark [6] stands for this setting: Severe acute respiratory syndrome coronavirus 2, Vero C1008.
Setting [7] is: Severe acute respiratory syndrome coronavirus 2, Vero C1008, 48 h.

Compound `CCN(CC)CCCC(C)Nc1ccnc2cc(Cl)ccc12` (stereo not drawn) [Chloroquine] gave a cytotoxic concentration (CC50) with A549-hACE2 cells of more than 50 µM. In addition, the EC50 in the data set with SARS-CoV-2-Nluc [1] (setting [4]) was found to be 1.32 µM; in the data set on SARS-CoV-2-Nluc [1] (setting [5]), 1.32 µM; with SARS-CoV-2-Nluc [2] (setting [6]), 3.52 µM; in the data set with SARS-CoV-2-Nluc [2] (setting [7]), 3.52 µM.

`CCC(CC)COC(=O)[C@H](C)N[P@](=O)(OC[C@H]1O[C@@](C#N)(c2ccc3c(N)ncnn23)[C@H](O)[C@@H]1O)Oc1ccccc1` [Remdesivir]: the “SI (selectivity index)” value with SARS-CoV-2-Nluc [1] was 284. The EC50 in the data set with SARS-CoV-2-Nluc [1] (setting [4]) stood at 0.115 µM; with SARS-CoV-2-Nluc [1] (setting [5]) it was 0.115 µM; in the data set with SARS-CoV-2-Nluc [2] (setting [6]), 1.28 µM; with SARS-CoV-2-Nluc [2] (setting [7]) it was 1.28 µM.

`CC(C)OC(=O)[C@H](C)N[P@](=O)(CO[C@H](C)Cn1cnc2c(N)ncnc21)Oc1ccccc1` [Tenofovir alafenamide] yielded a CC50 in the data set with A549-hACE2 cells of more than 50 µM. Further, the “activity against SARS-CoV-2-Nluc (in words)” value with SARS-CoV-2-Nluc [1] was “inactive”. Moreover, in the data set on SARS-CoV-2-Nluc [1] (setting [5]), the 50% effective concentration (EC50) was more than 10 µM. Moreover, the Cmax in data set [3] is 0.4 µM. In addition, the “Plasma protein binding (%)” value in the data set on plasma protein is reported as 80%.

In the data set on A549-hACE2 cells, `CCC[C@@]1(CCc2ccccc2)CC(O)=C([C@H](CC)c2cccc(NS(=O)(=O)c3ccc(C(F)(F)F)cn3)c2)C(=O)O1` [Tipranavir] showed a CC50 of 28.4 ± 0.5 µM. Further, in the data set on SARS-CoV-2-Nluc [1], the half-maximal effective concentration (EC50) came out at 8.65 ± 0.16 µM and the “SI (selectivity index)” value was 3.3. The EC50 in the data set on SARS-CoV-2-Nluc [1] (setting [5]) was 8 to 9 µM. Moreover, in data set [3], the “Exposure (μM): Cmin” value was 30.8 µM and the highest concentration (Cmax) is 130 µM. Moreover, the “Plasma protein binding (%)” value in the data set on plasma protein is 99.9%.

As to `CC[C@H]1OC(=O)[C@H](C)[C@@H](O[C@H]2C[C@@](C)(OC)[C@@H](O)[C@H](C)O2)[C@H](C)[C@@H](O[C@@H]2O[C@H](C)C[C@H](N(C)C)[C@H]2O)[C@](C)(O)C[C@@H](C)CN(C)[C@H](C)[C@@H](O)[C@]1(C)O` [azithromycin], the “fatality rate among hospitalized patients (in words)” value in the data set with COVID-19 is on record as “not associated with significant differences in fatality rate”.

Consider `CCN(CCO)CCCC(C)Nc1ccnc2cc(Cl)ccc12` (stereo not drawn) [hydroxychloroquine], for which, in the data set with COVID-19, the “fatality rate among hospitalized patients (in words)” value is recorded as “not associated with significant differences in fatality rate”.

Consider IFN-α, for which, in the data set with icSARS-CoV-2-mNG, the “EC50 (concentration inhibiting 50% of viral replication)” value is 101 u/ml, the “mNG expression (visual)” value is listed as “No mNG expression was visually observed” and the mNG signal result is “dose-dependent reduction of mNG signal”.
